ChEMBL document CHEMBL2062379, “Cleavage mechanism and anti-tumor activity of 3,6-epidioxy-1,10-bisaboladiene isolated from edible wild plants” (Bioorg Med Chem, 2012)
Calls of active or inactive are those of the source. The calls are words filed in the database; no cut-off is given here.

What was measured:
LOX IMVI = test: Antitumor activity against human LOXIMVI cells xenografted in nude mouse assessed as decrease in tumor volume at 25 mg/kg, iv administered on day 1, 6 and 11 post tumor inoculation measured on day 21; format: functional; design: scale not given: the % may be the effect or the level left
KM12 = test: Growth inhibition of human KM12 cells; format: functional
HL-60 [1] = test: Induction of apoptosis in human HL60 cells assessed as DNA fragmentation after 24 hrs by Hoechst staining-based microscopic analysis; format: functional, cell-based
HCT-15 = test: Growth inhibition of human HCT15 cells; format: functional
[2] = Prodrug conversion in buffer at pH 8 assessed as (1)- 7-(1,5-Dimethyl-hex-4-enyl)-4-methyl-3,8-dioxa-tricyclo[5.1.0.0*2,4*]octane formation after 24 hrs by HPLC analysis in presence of 25 mM FeSO4; format: physicochemical; conditions: pH 8, 24 h
HL-60 [3] = test: Cytotoxicity against human HL60 cells after 48 hrs by MTT assay in absence of DFOM; format: functional, cell-based; conditions: HL-60, 48 h
SNB-78 = test: Growth inhibition of human SNB78 cells; format: functional
NCI-H522 = test: Growth inhibition of human NCI-H522 cells; format: functional
HL-60 [4] = test: Induction of ROS generation in human HL60 cells at 10 uM after 3 hrs by spectrofluorometric analysis; format: functional, cell-based
HT-29 = test: Growth inhibition of human HT-29 cells; format: functional
MKN-74 = test: Growth inhibition of human MKN74 cells; format: functional
HCT-116 = test: Growth inhibition of human HCT116 cells; format: functional
Saccharomyces cerevisiae [5] = test: Growth restoration activity in cdc2-1 rad9-deficient Saccharomyces cerevisiae assessed as growth zone at 0.5 ug/disc incubated at 37 degC for 6 hrs and 28 degC for 2 days; format: functional
HL-60 [6] = test: Induction of apoptosis in human HL60 cells assessed as caspase 9 activation after 1 to 6 hrs by spectrophotometric analysis; format: functional, cell-based
K562 = test: Cytotoxicity against human K562 cells after 4 days by MTT assay; format: functional, cell-based; conditions: K562, 96 h
[7] = target: MAP kinase p38 (Homo sapiens) (UniProt O15264+Q15759+Q16539+P53778); test: Induction of p38 MAPK phosphorylation at T180/Y182 in human HL60 cells at 10 uM after 3 hrs by Western blot analysis; format: cell-based; conditions: HL-60
DMS-114 = test: Growth inhibition of human DMS114 cells; format: functional
OVCAR-5 = test: Growth inhibition of human OVCAR5 cells; format: functional
OVCAR-8 = test: Growth inhibition of human OVCAR8 cells; format: functional
HL-60 [8] = test: Induction of apoptosis in human HL60 cells assessed as caspase 3/7 activation after 1 to 6 hrs by spectrophotometric analysis; format: functional, cell-based
Saccharomyces cerevisiae [9] = test: Growth restoration activity in cdc2-1 rad9-deficient Saccharomyces cerevisiae assessed as growth zone incubated at 37 degC for 6 hrs and 28 degC for 2 days relative to mycophenolic acid; format: functional

CC(C)=CCCC(C)C12C=CC(C)(CC1)OO2 (stereo unspecified)
Activity (LOX IMVI): 26.9% | GI50 (KM12): 1.86 µM | Activity (HL-60 [1]): Dose-dependent effect | GI50 (HCT-15): 4.9 µM | Drug metabolism [2]: Active | IC50 (HL-60 [3]): 3.7 µM | GI50 (SNB-78): 1.55 µM | GI50 (NCI-H522): 0.2 µM | Activity (HL-60 [4]): inactive | GI50 (HT-29): 0.178 µM | GI50 (MKN-74): 1.17 µM | GI50 (HCT-116): 3.72 µM | Activity (Saccharomyces cerevisiae [5]): 0 mm | Activity (HL-60 [6]): Dose-dependent effect | IC50 (K562): 9.1 µM | Activity [7]: Active | GI50 (DMS-114): 10.7 µM | GI50 (OVCAR-5): 12 µM | GI50 (OVCAR-8): 12 µM | Activity (HL-60 [8]): Dose-dependent effect | fold change (FC) (Saccharomyces cerevisiae [9]): 50
